The assay relates to CD8 T-lymphocyte. Nature of the assay: Etoposide-induced CD8 T-lymphocyte apoptosis procedure (flow cytometry, compared with 8 Gy RILA). The class given is cell-based, human. The conditions noted are these: for Corresponding etoposide concentration: x̃i^co: concentration corresponding to 8 Gy RILA, applied at the start of cell culture, whole blood. The method, then: Blood samples were purchased from Etablissement Français du Sang (EFS) with the convention number 21PLER2016-0100 AV01. Blood samples were collected from healthy donors in 5 mL heparinized tubes without separation gel.
Blood cells were grown in RPMI-1640 with glutamax (Fisher scientific, France) supplemented with 20% fetal calf serum (FCS) (EuroBio, France). Cells were maintained at 37° C. with 5% CO2 during the experiments.
Etoposide (EuroMedex) was solubilized in sterile dimethyl-sulfoxide (DMSO) at 75 mg/mL according to manufacturer instructions and stored at −80° C.
Before radiotherapy (RT), one blood sample was collected from each patient in a 5-mL heparinized tube. Twenty or twenty-four hours after blood collection, 200 μl of blood were aliquoted into a 6-well plate containing 2 mL of RPMI-20% FCS. All tests were carried out in triplicate for both 0 and 8 Gy. Ex-vivo irradiations were delivered after 24 hours of blood cell culture using the Xenx irradiator platform (XStrahl, UK). Then, the plates were immediately incubated for 48 hours at 37° C. (5% C02).
Samples were then centrifuged for 5 min at 300 g. The pellets were resuspended in phosphate-buffered saline (PBS) containing 10 μl of anti-human CD8-FITC antibody (Becton Dickinson, USA) and incubated for 20 minutes at room temperature. Then, red blood cells were lysed by addition of 4 ml of lysis buffer diluted 1:10 in water (Becton Dickinson, USA). After another 20 minutes incubation time at room temperature, samples were centrifuged for 5 min at 300 g and the pellets were washed with 3 ml of PBS. Pellets were suspended in 200 μl of PBS containing 25 μg/ml of propidium iodide (Sigma, France) and 5 μl of RNAse A at 10 mg/ml (Qiagen, France). The samples were analyzed by flow cytometry within the next hours, using the CytoFlex (Beckman Coulter, USA).
Different irradiation doses (0 Gy, 6 Gy, 8 Gy and 10 Gy) and different Etoposide concentrations (40 μg/mL, 60 μg/mL, 70 μg/mL, 80 μg/mL, 100 μg/mL) were applied to aliquots of the same blood sample.
Irradiations and culture were performed as previously described. The staining was performed 48 hours after the irradiation using the same protocol as previously described.
For the Etoposide treatment, two hundred microliters of blood were aliquoted into a 6-well plate containing 2 mL of RPMI-20% FCS-Etoposide 24 hours after blood cell collection. The cell culture media containing the different concentrations of etoposide were made fresh just before starting the cell culture. After etoposide incubation with blood cells for at least 50 hours (generally more than about 60 hours, in particular between 65 and 75 hours), samples were stained for flow cytometry analysis as described above.
Two mixed linear models with fixed intercept, fixed slope and random intercept were used to model the RILA rate evolution according to the compound or to the irradiation dose in Gray.
(In general: In flow cytometry, cells or beads pass a laser one at a time.)

`COc1cc([C@@H]2c3cc4c(cc3[C@@H](O[C@@H]3O[C@@H]5CO[C@@H](C)O[C@H]5[C@H](O)[C@H]3O)[C@H]3COC(=O)[C@H]23)OCO4)cc(OC)c1O` [etoposide]: the “Corresponding etoposide concentration: x̃i^co” value was 66.2 µg/mL (Donor 1); 70.1 µg/mL (Donor 2); 67.1 µg/mL (Donor 3); 106.1 µg/mL (Donor 4); 87.1 µg/mL (Donor 5). Moreover, the “concentration at which the apoptosis rate obtained after irradiation is achieved” value (treatment applied at the start of blood cell culture) is “less than 150 μg/ml”.

The values are drawn from patent US12070470B2, “Topoisomerase inhibitor for mimicking the effect of ionizing radiations on T cells” (Novagray, priority 2018, dated 2024).
